{"source": "patent US12723063B2", "about": "“GIPR-agonist compounds” (Eli Lilly and Company, priority 2019, dated 2026)", "assay_in_all_cases": "cAMP functional assay (HTRF) in HEK293 cells in presence of 0.1% casein", "format_in_all_cases": "cell-based", "key": {"[1]": {"biological_target": "T1, human glucagon receptor (GcgR) (Homo sapiens, UniProt P47871)", "T1 construct": "expressed in transfected cells; host or cells: HEK293", "T1 sequence (P47871 26-477)": "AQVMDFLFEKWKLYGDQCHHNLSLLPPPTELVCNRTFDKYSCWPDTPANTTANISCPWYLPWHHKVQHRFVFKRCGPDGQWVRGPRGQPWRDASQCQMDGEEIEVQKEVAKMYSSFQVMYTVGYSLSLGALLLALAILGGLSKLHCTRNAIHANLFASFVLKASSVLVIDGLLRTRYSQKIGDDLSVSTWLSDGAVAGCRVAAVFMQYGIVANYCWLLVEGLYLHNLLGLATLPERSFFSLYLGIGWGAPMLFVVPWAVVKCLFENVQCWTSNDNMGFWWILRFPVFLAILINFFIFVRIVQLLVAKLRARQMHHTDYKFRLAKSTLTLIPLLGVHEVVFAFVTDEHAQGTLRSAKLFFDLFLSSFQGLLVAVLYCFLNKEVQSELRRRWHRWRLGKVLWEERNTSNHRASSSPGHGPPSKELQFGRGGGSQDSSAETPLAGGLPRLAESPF", "conditions": "HEK293 cells expressing human GcgR, geometric mean, read-out: hGcgR cAMP Rel EC50 nM (SEM, n)"}, "[2]": {"biological_target": "T2, human glucose-dependent insulinotropic peptide receptor (GIPR) (Homo sapiens, UniProt P48546)", "T2 construct": "expressed in transfected cells; host or cells: HEK293", "T2 sequence (P48546 22-466)": "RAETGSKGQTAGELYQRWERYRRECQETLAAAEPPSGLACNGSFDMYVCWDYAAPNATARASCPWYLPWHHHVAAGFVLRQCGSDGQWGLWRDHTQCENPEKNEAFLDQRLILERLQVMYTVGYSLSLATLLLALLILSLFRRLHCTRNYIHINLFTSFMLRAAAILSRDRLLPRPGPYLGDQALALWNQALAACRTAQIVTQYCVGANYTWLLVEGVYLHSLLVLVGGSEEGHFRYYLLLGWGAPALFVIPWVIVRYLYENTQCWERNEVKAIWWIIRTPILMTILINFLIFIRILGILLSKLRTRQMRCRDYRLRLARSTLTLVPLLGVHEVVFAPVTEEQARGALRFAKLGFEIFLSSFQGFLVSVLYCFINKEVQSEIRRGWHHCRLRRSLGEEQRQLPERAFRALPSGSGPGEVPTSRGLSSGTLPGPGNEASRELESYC", "conditions": "HEK293 cells expressing human GIPR, geometric mean, read-out: hGIPR cAMP Rel EC50 nM (SEM, n)"}, "[3]": {"biological_target": "T3, human GLP-1 receptor (GLP-1R) (Homo sapiens, UniProt P43220)", "T3 construct": "expressed in transfected cells; host or cells: HEK293", "T3 sequence (P43220 24-463)": "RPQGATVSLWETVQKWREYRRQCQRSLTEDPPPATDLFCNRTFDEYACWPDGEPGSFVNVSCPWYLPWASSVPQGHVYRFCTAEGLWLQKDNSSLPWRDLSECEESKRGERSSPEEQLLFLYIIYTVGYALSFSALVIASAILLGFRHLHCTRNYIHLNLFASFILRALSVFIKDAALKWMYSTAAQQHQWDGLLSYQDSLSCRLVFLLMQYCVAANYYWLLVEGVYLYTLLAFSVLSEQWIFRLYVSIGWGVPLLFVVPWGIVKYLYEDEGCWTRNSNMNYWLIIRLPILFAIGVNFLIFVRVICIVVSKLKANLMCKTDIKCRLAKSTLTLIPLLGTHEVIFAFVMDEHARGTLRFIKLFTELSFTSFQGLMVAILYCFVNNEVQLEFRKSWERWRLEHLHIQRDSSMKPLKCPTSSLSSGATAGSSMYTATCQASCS", "conditions": "HEK293 cells expressing human GLP-1R, geometric mean, read-out: hGLP1R cAMP Rel EC50 nM (SEM, n)"}}, "note": "*1 amine or outer side, *2 acyl side, *3 side chain or, on linkers, in order; H or OH if unused. Where a SMILES comes first, the peptide text is derived from it. Side-chain parts run from the residue outwards. [ ]: non-standard residue; d: D form. The star is where a group is joined. C20 diacid = O=C(O)CCCCCCCCCCCCCCCCCCC(=O)*; γGlu = O=C(O)[C@H](CCC(=O)[*:2])N[*:1]; αMeF = C[C@](N)(Cc1ccccc1)C(=O)O; 4Pal = N[C@@H](Cc1ccncc1)C(=O)O; αMeL = CC(C)C[C@](C)(N)C(=O)O; AEEA = NCCOCCOCC(=O)O; Aib = CC(C)(N)C(=O)O"}
{"compound": "CC[C@H](C)[C@H](NC(=O)[C@H](CO)NC(=O)[C@H](Cc1ccc(O)cc1)NC(=O)[C@H](CC(=O)O)NC(=O)[C@H](CO)NC(=O)[C@@H](NC(=O)[C@](C)(Cc1ccccc1)NC(=O)[C@@H](NC(=O)CNC(=O)[C@H](CCC(=O)O)NC(=O)C(C)(C)NC(=O)[C@@H](N)Cc1ccc(O)cc1)[C@@H](C)O)[C@@H](C)CC)C(=O)N[C@@](C)(CC(C)C)C(=O)N[C@@H](CC(C)C)C(=O)N[C@@H](CC(=O)O)C(=O)N[C@@H](CCCCN)C(=O)N[C@@H](CCCCNC(=O)COCCOCCNC(=O)COCCOCCNC(=O)CC[C@H](NC(=O)CCCCCCCCCCCCCCCCCCC(=O)O)C(=O)O)C(=O)N[C@@H](Cc1c[nH]cn1)C(=O)N[C@@H](CCC(N)=O)C(=O)NC(C)(C)C(=O)N[C@@H](CCC(=O)O)C(=O)N[C@@H](Cc1ccccc1)C(=O)N[C@H](C(=O)N[C@@H](CCC(=O)O)C(=O)N[C@@H](Cc1ccncc1)C(=O)N[C@@H](CC(C)C)C(=O)N[C@@H](CC(C)C)C(=O)N[C@@H](C)C(=O)N[C@H](C(=O)NCC(=O)N1CCC[C@H]1C(=O)N[C@@H](CO)C(=O)N[C@@H](CO)C(=O)NCC(=O)N[C@@H](C)C(=O)N1CCC[C@H]1C(=O)N1CCC[C@H]1C(=O)N1CCC[C@H]1C(=O)N[C@@H](CO)C(N)=O)[C@@H](C)O)C(C)C", "note": "[Example 61] (H-Y[Aib]EGT[αMeF]ISDYSI[αMeL]LDKK([AEEA-AEEA-γGlu-C20 diacid])HQ[Aib]EFVE[4Pal]LLATGPSSGAPPPS-NH2)", "values": [{"measurement": "EC50", "setting": "[1]", "value": "> 5000", "unit": "nM"}, {"measurement": "EC50", "setting": "[2]", "value": 0.0167, "unit": "nM"}, {"measurement": "EC50", "setting": "[3]", "value": 192, "unit": "nM"}]}
